Structures can show the parent of a compound that is named as a salt.

The target in one assay is T1, MMP-2 (Homo sapiens, UniProt P08253).
T1 construct: made in house; host or cells: Pichia pastoris (strains KM71 / SMD1168, clone 24S; vector pHIL-D2)
T1 sequence (P08253 110-660): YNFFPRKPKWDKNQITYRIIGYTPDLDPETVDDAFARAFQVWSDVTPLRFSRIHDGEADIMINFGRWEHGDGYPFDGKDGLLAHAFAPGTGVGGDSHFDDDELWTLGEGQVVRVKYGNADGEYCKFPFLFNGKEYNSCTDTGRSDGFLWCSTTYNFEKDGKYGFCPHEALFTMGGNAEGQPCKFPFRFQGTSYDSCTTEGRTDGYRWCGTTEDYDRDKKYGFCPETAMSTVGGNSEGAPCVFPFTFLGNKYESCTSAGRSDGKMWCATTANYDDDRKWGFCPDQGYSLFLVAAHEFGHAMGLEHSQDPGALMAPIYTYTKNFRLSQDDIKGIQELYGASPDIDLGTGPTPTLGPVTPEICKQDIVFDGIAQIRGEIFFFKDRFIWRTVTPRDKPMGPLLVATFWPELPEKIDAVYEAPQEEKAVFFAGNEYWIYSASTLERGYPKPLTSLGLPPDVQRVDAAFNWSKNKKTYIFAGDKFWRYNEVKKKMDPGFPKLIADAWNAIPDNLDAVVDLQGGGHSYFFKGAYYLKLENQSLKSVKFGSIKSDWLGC
The experiment in a line: Determination of inhibition constant (Ki) for MMP-2, fluorogenic substrate. It is filed as biochemical. The settings on record: pH 7.6. An excerpt:
Recombinant MMP-2 was purified from the fermentation broth of yeast Pichia pastoris that carries the integrated MMP-2 gene into its chromosome. In brief, the full-length cDNA for MMP-2 was obtained by reverse transcription of RNA from human melanoma A375M cell line by the reverse transcriptase polymerase chain reaction (RT-PCR) using sequence specific oligonucleotides. The nucleotide sequence was confirmed by Taq cycle sequencing. The cDNA was ligated into the Pichia pastoris expression vector pHIL-D2 in such a way that the expression of pro-MMP-2 is under the control of the methanol inducible alcohol oxidase promoter. The expression construct was digested with either SalI or NsiI and used to transform the Pichia pastoris strains KM71 and SMD1168. A large-scale culture of a selected clone designated 24S was performed in a high cell density fermentor and the recombinant MMP-2 was purified from the culture supernatant by gelatin-sepharose 4B (Pharmacia). The enzyme is sufficiently pure at this stage for routine measurement of inhibition. If desired, however, the enzyme may be further purified by AcA 44 gel filtration (Spectra).
The active MMP-2 was obtained by activation of proMMP-2 at 37° C. for 1 h with 4-aminophenylmercuric acetate which was then removed by a Sephadex G-50 spin column. The enzyme is assayed using a fluorogenic substrate, Mca-Pro-Leu-Gly-Leu-Dpa-Ala-Arg-NH2, at 37° C. in 2.0 mL of assay buffer containing 50 mM Tris, pH 7.6, 0.2 M sodium chloride, 50 mM calcium chloride, 0.02% Brij-35, and 50 μM β-mercaptoethanol. The increase in fluorescence is monitored (λex 328 nm, λem 393 nm). Substrate and inhibitor stock solutions are made in DMF. The enzyme is added at the last to start the reaction. For routine measurement of a Ki value for a reversible, competitive inhibitor, the initial rates in the presence of at least four inhibitor concentrations (two inhibitor concentrations above Ki and two below Ki) are measured using [S]=1 μM (<<Km) and [MMP-2]=0.4 nM. Under these conditions, the measured Ki, app is close to true Ki.

Assay [1] has as its target T2, MMP-1 (interstitial collagenase) (Homo sapiens, UniProt P03956).
T2 construct: The active MMP-1 was obtained by treatment of proMMP-1 with trypsin; endogenous in cells; host or cells: human rheumatoid synovial fibroblasts stimulated with macrophage-conditioned medium; secreted proenzyme purified from culture medium
T2 sequence (P03956 100-469): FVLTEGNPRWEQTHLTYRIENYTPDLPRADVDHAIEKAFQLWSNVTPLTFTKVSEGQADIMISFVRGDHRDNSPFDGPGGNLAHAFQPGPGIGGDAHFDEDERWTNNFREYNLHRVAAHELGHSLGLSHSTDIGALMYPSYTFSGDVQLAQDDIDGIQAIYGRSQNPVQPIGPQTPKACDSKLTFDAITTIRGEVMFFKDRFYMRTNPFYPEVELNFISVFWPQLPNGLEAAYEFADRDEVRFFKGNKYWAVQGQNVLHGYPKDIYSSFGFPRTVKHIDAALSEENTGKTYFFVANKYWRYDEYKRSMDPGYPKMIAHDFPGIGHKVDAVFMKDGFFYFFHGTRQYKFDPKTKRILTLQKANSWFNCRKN
The experiment in a line: Determination of inhibition constant (Ki) for MMP-1, fluorogenic substrate. The class given is biochemical. The note with it: pH 7.6. The protocol: ProMMP-1 (EC3.4.24.7; interstitial collagenase) was purified from culture medium of human rheumatoid synovial fibroblasts stimulated with macrophage-conditioned medium according to Okada, Y. et al., J. Biol. Chem. 261, 14245-14255 (1986). The active MMP-1 was obtained by treatment of proMMP-1 with trypsin (5 μg/mL) at 37° C. for 30 minutes, followed by addition of soybean trypsin inhibitor (50 μg/mL).
The activated MMP-1 is assayed using a fluorogenic substrate, Mca-Pro-Leu-Gly-Leu-Dpa-Ala-Arg-NH2, Knight, C. G. et al., FEBS Lett. 296, 263-266 (1992), at 37° C. in 2.0 mL of assay buffer containing 50 mM Tris, pH 7.6, 0.2 M sodium chloride, 50 mM calcium chloride, and 0.02% Brij-35. The increase in fluorescence due to cleavage of Gly-Leu peptide bond by MMP-3 was monitored with Perkin-Elmer LS50B Fluorimeter (λex 328 nm, λem 393 nm, excitation slit 2.5, emission slit 10). Substrate and inhibitor stock solutions were made in DMF. For determination of Ki values for MMP-1 inhibitors, a series of intermediate inhibitor solutions were prepared in DMF and 1 or 2 μL of the diluted inhibitor solution was mixed with 1 μL of 2 mM substrate solution in DMF in a quartz cuvette containing 2 mL of assay buffer. The enzyme (10 μL of 0.2 μM […] dilution in assay buffer) was added at the last to start the reaction. For routine measurement of a Ki value for a reversible, competitive inhibitor, the initial rates in the presence of at least four inhibitor concentrations (two concentrations above Ki and two concentrations below Ki) were measured using [S]=1 μM (<<Km) and [MMP-1]=0.8 nM. Under these conditions, the measured Ki, app is close to true Ki.
The Ki for a competitive inhibitor is calculated using: v0/vi=(1+[I]/Ki, app) and Ki=Ki, app/(1+[S]/Km), where v0 is the initial rate in the absence of inhibitor, vi is the initial rate in the presence of inhibitor at the concentration of [I], [S] is the substrate concentration, and Km is the Michaelis constant. If slow binding is observed (i.e. if the approach to the binding equilibrium is slow), the final steady-state rate rather than the initial rate is taken as vi.

The mark [2] stands for this setting: Table 1, Mca-Pro-Leu-Gly-Leu-Dpa-Ala-Arg-NH2, 37° C.

Turning to `CNC(=O)[C@H](Cc1ccccc1)NC(=O)[C@H](CCc1ccccc1)NC(=O)C(S)C(C)C` (stereo partly drawn) [Example 7, (S)-2-Mercapto-3-methylbutyroyl-(L)-homo-phenylalanyl-(L)-phenylalanine N-methyl amide, reference compound], the Ki at MMP-2 (Table 2 (comparative), method of Example B, 37° C.) is 3.3 nM; in assay [1] (Table 2 (comparative), method of Example A, 37° C.), 465 nM.
With `CC(C)[C@H](S)C(=O)N[C@@H](CCCCN)C(=O)N[C@@H](Cc1ccccc1)C(=O)O` [Example 5, (S)-2-Mercapto-3-methylbutyroyl-(L)-lysyl-(L)-phenylalanine trifluoroacetic acid salt], the values for the Ki (at MMP-2 (setting [2]); in assay [1] (setting [2])) were 1740 nM and 3910 nM, respectively.
As to `CC(C)C[C@H](NC(=O)[C@@H](S)C(C)C)C(=O)N[C@@H](Cc1ccccc1)C(=O)O` [Example 3, (S)-2-Mercapto-3-methylbutyroyl-(L)-leucyl-(L)-phenylalanine], the Ki on MMP-2 (setting [2]) was 784 nM; in assay [1] (setting [2]) it was 518 nM.
In the case of `CSCC[C@H](NC(=O)[C@@H](S)C(C)C)C(=O)N[C@@H](Cc1ccccc1)C(=O)O` [Example 4, (S)-2-Mercapto-3-methylbutyroyl-(L)-methionyl-(L)-phenylalanine], the inhibition constant (Ki) was determined as 798 nM at MMP-2 (setting [2]) and 153 nM in assay [1] (setting [2]).

The record behind these values is patent US6352976B1, “Selective inhibitors of MMP-12” (Aventis Pharmaceuticals Inc., priority 1998, dated 2002).
